The values that follow come from article PMC5944028, “Nonclinical and clinical pharmacological characterization of the potent and selective cathepsin K inhibitor MIV-711” (Journal of Translational Medicine, 2018).

Like-named read-outs stand apart in the source and are kept apart here.

Series [1] concerns > 70 different ion channels, receptors, transporters and CYP enzymes. The experiment in a line: PanLabs broad panel. To be noted: 10 µmol/L. The procedure:
MIV-711 was analyzed against > 70 different ion channels, receptors, transporters and cytochrome P450 (CYP) enzymes at a concentration of 10 µmol/L at PanLabs (Taipei, Taiwan).

The subject of series [2] is differentiated human osteoclasts. Nature of the series: Osteoclast-mediated bone resorption, human bone fragments (CTX-I release). Type of series: cell-based. The protocol: The effect of MIV-711 on osteoclast-mediated bone resorption was evaluated using a complete kit from Cambrex Bio Science (Walkersville, MD, USA). Briefly, primary osteoclasts were generated from osteoclast precursors by incubation with RANK ligand and M-CSF in 96-well plates coated with human bone fragments, according to the instructions from the provider. After differentiation (minimum of 5 days), osteoclasts were exposed to different fixed concentrations of MIV-711 for 24 h. The resorption activity of the cultures was determined by quantifying CTX-I in the culture supernatants using a commercially available enzyme-linked immunosorbent assay (CrossLaps®, Nordic Bioscience Diagnostics A/S, Herlev, Denmark). Controls exposed to medium without inhibitor were set to 100%. CTX-I levels from MIV-711-treated cells were normalized and expressed as % of control. Curves were generated plotting the concentration of MIV-711 versus % of control. The curves were fitted to the Hill (four parameter) equation to generate an IC50 value using GraphPad Prism software. The IC50 value was defined as the concentration of MIV-711 that reduced CTX-I levels to 50% of control.

In series [3] the test system is urine CTX-II. Nature of the series: Monkey urine CTX-II, multiple doses. Type of series: in vivo, cynomolgus monkeys (Macaca fascicularis). The procedure: Biomarkers such as NTX-I (bone resorption) and CTX-II (cartilage degradation) are typically measured in urine. Additional experiments in which urine was collected were therefore performed. In these experiments, four cynomolgus monkeys (Macaca fascicularis) were used (Aptuit, Edinburgh, UK). The animals were healthy young females weighing 3.5–4 kg. Animals were dosed with vehicle or MIV-711 via oral gavage at a dose volume of 5 mL/kg between 7:30 and 8:30 a.m. Animals first received vehicle via oral gavage for five consecutive days. After a washout period, the animals then received MIV-711 (30 µmol/kg) via oral gavage for five consecutive days.
Urine was collected between 8–12 a.m., 12 a.m.–4 p.m. and 4 p.m.–8 a.m. on Day 1 and Day 5 of respective treatment. Biomarkers were measured in each urine sample, corrected for creatinine, and the mean value of the three samples on Day 1 and Day 5 was calculated. The effect of MIV-711 was evaluated by comparing biomarkers in urine samples collected on Day 1 and Day 5 with respective vehicle sample. [drawing 3]
The quantification of CTX-I in monkey plasma samples and human serum samples was performed using a commercially available kit (Serum CrossLaps ELISA, IDS Nordic, Herlev, Denmark). The levels of CTX-I in monkey urine samples were measured using a commercially available kit (Urine BETA CrossLaps ELISA, IDS Nordic). […]

In series [4] the test system is serum CTX-I. Nature of the series: Human serum CTX-I, single ascending dose study. Type of series: in vivo, human healthy subjects. From the text: Twenty-seven healthy male and female subjects (18 male and 9 female) of any ethnic origin (24 White, 1 Asian, 1 Black, 1 Black/Caribbean White), aged between 19 and 64 years, and with a body mass index (BMI) between 18.0 and 32.0 kg/m^2, were selected for this study. Inclusion criteria for enrollment followed the standard practice for first-in-man studies.
This was a randomized, double-blind, placebo-controlled, sequential, single-ascending dose study conducted at a single site with the objective of evaluating the safety, tolerability, pharmacokinetics (PK) and pharmacodynamics of MIV-711. Subjects were randomized into 3 groups using a computer-generated pseudo-random permutation procedure. Each group consisted of 9 subjects with at least 3 subjects of each gender per group and subjects participated in 1–2 treatment periods. There was a minimum of 10 days between dose escalations and a minimum of 20 days between dosing occasions for individual subjects. For each subsequent dosing occasion, the decision to escalate the dose to the next level was taken after a thorough review of the safety, tolerability and PK data. In each treatment period, 7 subjects received MIV-711 and 2 received placebo (comprising of 1 subject of each gender). Dosing occurred on the morning of Day 1 following an overnight fast and subjects were kept in the fasted state until approximately 4.5 h after dosing. MIV-711 was given as a combination of 10 or 40 mg hard gelatin capsules, while placebo was given in similar capsules of identical appearance.
Blood samples were collected at pre-dose, 4, 8, 24 and 48 h post-dose and processed into serum for the measurement of CTX-I concentrations.
The quantification of CTX-I in monkey plasma samples and human serum samples was performed using a commercially available kit (Serum CrossLaps ELISA, IDS Nordic, Herlev, Denmark). The levels of CTX-I in monkey urine samples were measured using a commercially available kit (Urine BETA CrossLaps ELISA, IDS Nordic). The quantification of NTX-I in monkey samples was performed using a commercially available kit (Osteomark NTx Urine, Wampole Laboratories, Inc, Princeton, USA). Urinary levels of CTX-II in monkey samples were measured using a commercially available kit (Urine CrossLaps EIA, IDS Nordic). The concentrations of biomarkers in the urine samples were corrected for creatinine concentrations. The creatinine levels in urine were determined at Swedish University of Agricultural Sciences, using the enzymatic assay (cat no. 8L24-01) on the Abbott system Architect c4000.

The test system of series [5] is differentiated human osteoclasts. The arrangement: method as in PMID 20097319. To be noted: bovine bone slices; read-out: IC50 in bone resorption assay; cited from earlier work.

Broadly, the IC50 is the concentration that gives 50% inhibition. For the compound `C#C[C@@H]1CN(C(=O)[C@H](CC(C)C)NC(=O)c2ccc(-c3nc(N4CCN(C)CC4)sc3F)cc2)[C@@H]2C(=O)CO[C@H]12` [MIV-711], the “Responses (more than 50% inhibition) in broad panel” value in series [1] was “No significant responses”. The “Concentration needed for effect on bone resorption in vitro relative to Ki” value in series [2] is recorded as “around 50 fold”. Further, the 50% inhibitory concentration (IC50) in series [2] (human bone fragments, 24 h, CTX-I, geometric mean) is 43 nM; in series [5] it was 37 nM. In addition, in series [3] (30 µmol/kg p.o. once daily for 5 days, creatinine-corrected), the “Reduction of urinary CTX-II compared to vehicle” value was 71%. In addition, the “Effect on urinary CTX-II compared to vehicle” value in series [3] (single dose 30 µmol/kg p.o. (Day 1)) was “unaffected”. Further, the “Inhibition of serum CTX-I versus baseline at 24 h” value in series [4] (20 mg single dose) came out at 20%; in series [4] (600 mg single dose), 79%. Further, the “Reduction of CTX-I at 24 h post-dose” value in series [4] (100 mg single dose) was 54%. In addition, in series [4] (AUC0–24h), the “Exposure required for 50% reduction of CTX-I at 24 h post dose” value stood at 1.3 µmol/L/h.
